# Values quoted from earlier work as cited in US8603996B2, “Modular aptamer-regulated ribozymes” (California Institute of Technology, priority 2006, dated 2013).
# Test system: theophylline aptamer
compound,measurement,value
O=c1[nH]c(=O)c2[nH]cnc2[nH]1 [xanthine],binding affinity lower than theophylline,27 fold
